Assay [1] in a line: Cytotoxicity against human KKUM213 cells assessed as growth inhibition measured by SRB assay. The assay is classed as functional, cell-based. Conditions: KKU-M213.
The next assay deals with FaDu. Put plainly: Cytotoxicity against human FaDu cells assessed as growth inhibition measured by SRB assay. The assay is classed as functional, cell-based.
In a further assay the test system is HT-29. Briefly: Cytotoxicity against human HT-29 cells assessed as growth inhibition measured by SRB assay. The assay is classed as functional, cell-based.
The test system of a further assay is MDA-MB-231. Put plainly: Cytotoxicity against human MDA-MB-231 cells assessed as growth inhibition measured by SRB assay. The assay is classed as functional, cell-based.
The subject of the next assay is A549. Put plainly: Cytotoxicity against human A549 cells assessed as growth inhibition measured by SRB assay. The assay is classed as functional, cell-based.
For a further assay, the system named is SH-SY5Y. Put plainly: Cytotoxicity against human SH-SY5Y cells assessed as growth inhibition measured by SRB assay. The assay is classed as functional, cell-based.
Assay [2] is described as follows: Cytotoxicity against human […] cells assessed as growth inhibition measured by SRB assay. It is filed as cell-based.

Structures are written as SMILES.

In the case of `COC(=O)CC/C(C)=C/Cc1c(OC)c(C)c2c(c1OCC#CCN1CCN(c3ccccc3F)CC1)C(=O)OC2`, the IC50 in assay [1] was greater than 50 µM; in the assay on FaDu it was greater than 50 µM; in the assay on HT-29, greater than 50 µM; with MDA-MB-231, greater than 50 µM; with A549, 45.3 µM; in the assay with SH-SY5Y it was 35.8 µM. The IC50 in assay [2] was greater than 50 µM.

In the case of `CCCCN(CC#CCOc1c(C/C=C(\C)CCC(=O)OC)c(OC)c(C)c2c1C(=O)OC2)CCCC`, the concentration for half-maximal inhibition (IC50) in assay [1] was 38.2 µM; with FaDu, 30.9 µM; in the assay with HT-29, greater than 50 µM; in the assay on MDA-MB-231, 39.8 µM; in the assay with A549, 30.6 µM; in the assay on SH-SY5Y it was 21.5 µM. Also, the IC50 in assay [2] amounted to 36 µM.

With `COc1c(C)c2c(c(O)c1C/C=C(\C)CCC(=O)O)C(=O)OC2` [MYCOPHENOLIC ACID], the IC50 in assay [1] came to 7.16 µM; with FaDu it was 6.72 µM; in the assay on HT-29 it was 6.48 µM; in the assay on MDA-MB-231, 7.83 µM; in the assay on A549 it was 1.21 µM; with SH-SY5Y, 0.56 µM. For the same compound, the IC50 in assay [2] came out at 7.19 µM.

Turning to `COC(=O)CC/C(C)=C/Cc1c(OC)c(C)c2c(c1OCC#CCN1CCN(C(c3ccccc3)c3ccccc3)CC1)C(=O)OC2`, the IC50 in assay [1] is greater than 50 µM; with FaDu, greater than 50 µM; in the assay with HT-29, greater than 50 µM; in the assay with MDA-MB-231, greater than 50 µM; in the assay with A549, 32.7 µM; in the assay with SH-SY5Y, 23.7 µM. Further, the IC50 in assay [2] is greater than 50 µM.

In the case of `COC(=O)CC/C(C)=C/Cc1c(OC)c(C)c2c(c1OCC#CCN1CCN(c3ncccn3)CC1)C(=O)OC2`, the IC50 (in assay [1]; in the assay on FaDu; with HT-29; in the assay on MDA-MB-231; in the assay with A549; with SH-SY5Y) was greater than 50 µM throughout. In addition, the IC50 in assay [2] was greater than 50 µM.

For `COC(=O)CC/C(C)=C/Cc1c(OC)c(C)c2c(c1OCC#CCN1CCC(C(=O)O)CC1)C(=O)OC2`, the IC50 in assay [1] is greater than 50 µM; in the assay on FaDu it was greater than 50 µM; in the assay on HT-29, greater than 50 µM; in the assay on MDA-MB-231, greater than 50 µM; with A549, greater than 50 µM; with SH-SY5Y, 47.2 µM. Moreover, the IC50 in assay [2] was greater than 50 µM.

For `COC(=O)CC/C(C)=C/Cc1c(OC)c(C)c2c(c1OCC#CCN1CCCc3ccccc31)C(=O)OC2`, the IC50 in assay [1] was greater than 50 µM; in the assay on FaDu, greater than 50 µM; with HT-29, greater than 50 µM; in the assay with MDA-MB-231, greater than 50 µM; in the assay on A549 it was 18 µM; in the assay on SH-SY5Y, 9.57 µM. Besides, the IC50 in assay [2] is greater than 50 µM.

For the compound `COC(=O)CC/C(C)=C/Cc1c(OC)c(C)c2c(c1OCC#CCN1CCN(c3ccccc3OC)CC1)C(=O)OC2`, the IC50 in assay [1] is greater than 50 µM; with FaDu it was greater than 50 µM; in the assay with HT-29, greater than 50 µM; in the assay with MDA-MB-231, greater than 50 µM; in the assay with A549, greater than 50 µM; in the assay on SH-SY5Y it was 43.6 µM. In assay [2], the IC50 was greater than 50 µM.

On to `COC(=O)CC/C(C)=C/Cc1c(OC)c(C)c2c(c1OCC#CCN1CCN(c3ccc(C#N)cc3)CC1)C(=O)OC2`, for which the IC50 in assay [1] is greater than 50 µM; in the assay on FaDu, greater than 50 µM; in the assay with HT-29, greater than 50 µM; in the assay with MDA-MB-231 it was greater than 50 µM; with A549, greater than 50 µM; with SH-SY5Y it was 37.8 µM. Besides, the IC50 in assay [2] was greater than 50 µM.

Consider `CCCCNc1ccc(CC#CCOc2c(C/C=C(\C)CCC(=O)OC)c(OC)c(C)c3c2C(=O)OC3)cc1`, for which the 50% inhibitory concentration (IC50) worked out at 22.9 µM in assay [1]; 21.2 µM in the assay on FaDu; 36.7 µM in the assay on HT-29; 19.8 µM in the assay with MDA-MB-231; 6.97 µM with A549; 5.96 µM with SH-SY5Y. Moreover, the concentration for half-maximal inhibition (IC50) in assay [2] turned out to be 18.3 µM.

In the case of `COC(=O)CC/C(C)=C/Cc1c(OC)c(C)c2c(c1OCC#CCN1CCN(CCO)CC1)C(=O)OC2`, the IC50 in assay [1] was greater than 50 µM; in the assay on FaDu, greater than 50 µM; with HT-29 it was greater than 50 µM; in the assay on MDA-MB-231, greater than 50 µM; with A549, greater than 50 µM; in the assay on SH-SY5Y it was 35.7 µM. For the same compound, in assay [2], the IC50 was greater than 50 µM.

Source of the values: ChEMBL document CHEMBL4819142, “Synthesis of propargylamine mycophenolate analogues and their selective cytotoxic activity towards neuroblastoma SH-SY5Y cell line” (Bioorg Med Chem Lett, 2021).
